Measured values as given in patent US20250197425A1, “2,6,9-TRISUBSTITUTED PURINES” (ASTRAZENECA AB, priority 2022, published 2025).
≈ marks a conversion by molar mass, not a printed value. Read-outs that look alike come from different tables or passages of the source.

What was measured:
[1] = system: POLR2A Ser2 phosphorylation (CDK9); assay: POLR2A Ser2 phosphorylation imaging assay in MCF-7 cells; type: cell-based; settings: Homo sapiens, MCF7, 2 h, MCF-7 cells, 2 hours; read-out: POLR2A Ser2 phosphorylation IC50
How it was run: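 MCF-7 cells were fixed, permeabilised and immunostained for POLR2A phospho-Ser2, then imaged by high-content microscopy. Levels were normalised to controls and IC50 values derived.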

MCF-7 cells = assay: Cellular proliferation EdU assay, MCF-7; type: cell-based; settings: EdU assay, two days, read-out: MCF-7 IC50
How it was run: (§1)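 MCF-7 (800 cells/well) and OVCAR3 (1200 cells/well) in RPMI with 10% FBS exposed to compounds for two days at 37 °C.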

OVCAR3 cells = assay: Cellular proliferation EdU assay, OVCAR3; type: cell-based, human; settings: EdU assay, two days, read-out: OVCAR3 IC50
How it was run: as §1

[2] = target: 379 non-CDK kinase (or non-CDK kinase-complex) targets; assay: Kinase profiling (SelectScreen, ThermoFisher); type: biochemical; settings: compared with Compound 6
Excerpt: Test compounds were profiled against a broad panel of kinases at ThermoFisher Scientific using the SelectScreen Kinase Profiling Services. Each kinase assay used one of the following assay technology protocols: • 1) Z-LYTE™ Screening Protocol and Assay Conditions (Revised 23 Jan. 2018 version) available at http://assets.thermofisher.com/TFS-Assets/BID/Methods-&-Protocols/20180123_SSBK_Customer_Protocol_and_Assay_Conditions.pdf; • 2) Adapta™ Screening Protocol and Assay Conditions (Revised 23 Jan. 2018 version) available at http://assets.thermofisher.com/TFS-Assets/BID/Methods-&-Protocols/20180123_SSBK_Adapta_Customer_Protocol_and_Assay_Conditions.pdf; or • 3) LanthaScreen™ Eu Kinase Binding Assay Screening Protocol and Assay Conditions (Revised 23 Jan. 2018 version) available at http://assets.thermofisher.com/TFS-Assets/BID/Methods-&-Protocols/20180123_SSBK_LanthaScreen_Binding_Customer_Protocol_and_Assay_Co nditions.pdf.

CDK2:CCNE1 = CDK2:CCNE1 (Homo sapiens (Human), UniProt P24941); assay: NanoBRET assay in MCF-7 cells, CDK2; type: cell-based; settings: transfected MCF-7 cells, 2 hours, n = 1 or average
How it was run: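 In live MCF-7 cells, compound added followed by NanoBRET TE Tracer K-9 (stock 200 μM) for CDK2, 2 h at 37° C, 5% CO2.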

CDK1:CCNB1 = CDK1:CCNB1 (Homo sapiens (Human), UniProt P06493); assay: NanoBRET assay in MCF-7 cells, CDK1; type: cell-based; settings: NanoBRET, transfected MCF-7 cells, 2 hours; n = 1 or average; read-out: CDK1 IC50
CDK1:CCNB1, sequence (P06493 whole entry): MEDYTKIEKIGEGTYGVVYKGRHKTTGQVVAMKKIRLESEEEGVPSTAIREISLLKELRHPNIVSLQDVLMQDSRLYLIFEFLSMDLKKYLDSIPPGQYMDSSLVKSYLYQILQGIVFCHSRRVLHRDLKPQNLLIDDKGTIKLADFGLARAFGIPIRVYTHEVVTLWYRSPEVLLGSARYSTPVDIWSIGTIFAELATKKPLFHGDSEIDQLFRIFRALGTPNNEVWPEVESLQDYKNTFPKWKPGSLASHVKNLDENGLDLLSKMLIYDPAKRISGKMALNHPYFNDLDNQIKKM
CDK1:CCNB1, sequence (P14635 whole entry partner): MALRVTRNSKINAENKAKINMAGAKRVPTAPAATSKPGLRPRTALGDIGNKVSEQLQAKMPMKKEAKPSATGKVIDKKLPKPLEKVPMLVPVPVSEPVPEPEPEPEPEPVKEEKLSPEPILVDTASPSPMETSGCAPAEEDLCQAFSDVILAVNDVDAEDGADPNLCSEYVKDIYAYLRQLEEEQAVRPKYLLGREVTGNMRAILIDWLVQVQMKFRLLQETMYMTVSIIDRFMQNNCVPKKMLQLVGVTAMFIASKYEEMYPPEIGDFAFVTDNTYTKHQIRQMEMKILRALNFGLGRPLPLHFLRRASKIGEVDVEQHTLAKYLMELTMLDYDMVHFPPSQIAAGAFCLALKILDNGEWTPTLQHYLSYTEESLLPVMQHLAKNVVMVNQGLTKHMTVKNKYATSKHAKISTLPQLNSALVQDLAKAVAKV
How it was run: (§2)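 Intracellular target engagement was measured by NanoBRET ratio (460 nm/610 nm) in live MCF-7 cells transiently carrying CDK4:CCND1 (Tracer K-7, 100 μM stock) or CDK1:CCNB1 (Tracer K-9, 400 μM stock).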

CDK4:CCND1 = CDK4:CCND1 (Homo sapiens (Human), UniProt P11802); assay: NanoBRET assay in MCF-7 cells, CDK4; type: cell-based; settings: NanoBRET, transfected MCF-7 cells, 2 hours; n = 1 or average; read-out: CDK4 IC50
CDK4:CCND1, sequence (P11802 whole entry): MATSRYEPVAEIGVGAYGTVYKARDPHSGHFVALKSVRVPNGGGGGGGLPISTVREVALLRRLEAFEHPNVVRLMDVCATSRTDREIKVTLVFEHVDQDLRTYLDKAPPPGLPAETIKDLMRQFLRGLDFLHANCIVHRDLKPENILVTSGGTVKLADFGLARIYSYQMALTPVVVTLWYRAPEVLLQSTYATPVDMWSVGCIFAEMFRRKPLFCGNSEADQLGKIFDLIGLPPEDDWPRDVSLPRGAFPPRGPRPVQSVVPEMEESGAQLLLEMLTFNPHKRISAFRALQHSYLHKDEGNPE
CDK4:CCND1, sequence (P24385 whole entry partner): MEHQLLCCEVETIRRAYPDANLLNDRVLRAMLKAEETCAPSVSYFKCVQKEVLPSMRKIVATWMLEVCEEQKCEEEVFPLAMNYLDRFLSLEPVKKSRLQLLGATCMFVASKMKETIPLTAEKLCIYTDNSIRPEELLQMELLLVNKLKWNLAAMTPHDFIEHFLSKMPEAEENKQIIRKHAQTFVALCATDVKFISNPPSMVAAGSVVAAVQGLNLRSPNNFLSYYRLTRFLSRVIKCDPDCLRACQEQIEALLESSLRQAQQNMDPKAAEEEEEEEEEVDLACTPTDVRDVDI
How it was run: as §2

[3] = system: NPM phosphorylation (Thr199, CDK2-cyclin E complex); assay: NPM phosphorylation imaging assay in MCF-7 cells; type: cell-based; settings: 4N DNA cells
How it was run: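 MCF-7 cells were fixed, permeabilised and immunostained, then imaged for phospho-NPM (Thr199), a CDK2-cyclin E site. Analysis was gated on 4N-DNA cells by Hoechst staining. Signals were normalised to controls and fitted for IC50.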

[4] = CLint assessment in human liver microsomes (HLM); type: in vitro ADME; settings: 1 μM
How it was run: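 Microsomes preincubated 8 min with NADPH, then compound added and incubated 30 min at 37° C. Remaining compound measured by LC-MS/MS. t1/2 and CLint calculated, with CLint scaled to incubation volume per mg microsomal protein.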

[5] = Aqueous thermodynamic solubility, shake-flask; type: physicochemical; settings: phosphate buffer 0.1 M, pH 7.4, 24 hours
How it was run: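 After 24 h stirring at 25° C. in pH 7.4 phosphate buffer (0.1 M), solid-free supernatant from two centrifugations was quantified by UPLC/MS/MS after dilution in water. Compound was added as dried material after DMSO removal.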

[6] = aqueous phosphate buffer, 25 °C, pH 7.4, aqueous buffer, thermodynamic from solid

SMILES	IC50 [1] [nM]	IC50 (MCF-7 cells; Homo sapiens, MCF7, 48 h) [nM]	IC50 (OVCAR3 cells; Homo sapiens, OVCAR-3, 48 h) [nM]	kinase inhibition profile [2]	IC50 (CDK2:CCNE1) [nM]	IC50 (CDK1:CCNB1) [nM]	IC50 (CDK4:CCND1) [nM]	IC50 ([3]; Homo sapiens, MCF7, 2 hours) [nM]	HLM CLint [4] [µL/min/mg]	solubility at 24 h [5, 6] [µM]	IC50 ([3]; Homo sapiens, MCF7, 2 h) [nM]	IC50 ([3]; 2 hours) [nM]	IC50 (MCF-7 cells) [nM]	IC50 (OVCAR3 cells) [nM]	solubility at 24 h ([5]; 25° C.) [µM]
CCn1cnc2c(N[C@H]3CCN(S(C)(=O)=O)C3)nc(N[C@@H](CO)C3CC3)nc21 [Example 39, (R)-2-cyclopropyl-2-((9-ethyl-6-(((S)-1-(methylsulfonyl)pyrrolidin-3-yl)amino)-9H-purin-2-yl)amino)ethanol]	> 30000	658	288	broadly similar kinase inhibition profiles to Compound 6	–	–	–	–	–	–	–	–	–	–	–
CCn1cnc2c(N[C@H]3CCN(S(C)(=O)=O)C3)nc(N[C@@H](CO)C(C)C)nc21 [Example 28, (R)-2-((9-ethyl-6-(((S)-1-(methylsulfonyl)pyrrolidin-3-yl)amino)-9H-purin-2-yl)amino)-3-methylbutan-1-ol]	> 30000	699	186	broadly similar kinase inhibition profiles to Compound 6	–	–	–	–	–	–	–	–	–	–	–
CC[C@H](Nc1nc(N[C@H]2CCN(S(=O)(=O)NC)C2)c2ncn(CC)c2n1)C(C)(C)O [Example 46, (S)-3-((9-ethyl-2-(((S)-2-hydroxy-2-methylpentan-3-yl)amino)-9H-purin-6-yl)amino)-N-methylpyrrolidine-1-sulfonamide]	> 30000	3170	1370	–	192	8370	23700	1170	76.6	> 1000	–	–	–	–	–
CC(C)n1cnc2c(N[C@H]3CCN(S(C)(=O)=O)C3)nc(N[C@@H](CO)C3CC3)nc21 [Example 30, (R)-2-cyclopropyl-2-((9-isopropyl-6-(((S)-1-(methylsulfonyl)-pyrrolidin-3-yl)amino)-9H-purin-2-yl)amino)ethanol]	> 30000	785	191	–	19	746	5700	198	191	276 (≈ 117 µg/mL)	–	–	–	–	–
CC(C)n1cnc2c(N[C@H]3CCN(S(C)(=O)=O)C3)nc(NC(CO)C3CCCO3)nc21 (stereo partly drawn) [Example 16, 2-((9-isopropyl-6-(((S)-1-(methylsulfonyl)pyrrolidin-3-yl)amino)-9H-purin-2-yl)amino)-2-(tetrahydrofuran-2-yl)ethan-1-ol]	> 30000	2520	964	–	93	1600	17200	–	96.5	> 1000	368	–	–	–	–
CCn1cnc2c(N[C@H]3CCN(S(=O)(=O)NC)C3)nc(N[C@@H](C)[C@@H](O)C(F)(F)F)nc21 (single isomer, unassigned) [Example 49, (S)-3-((9-ethyl-2-(((2R*,3S*)-4,4,4-trifluoro-3-hydroxybutan-2-yl)amino)-9H-purin-6-yl)amino)-N-methylpyrrolidine-1-sulfonamide]	20200	–	–	–	13	907	4400	–	19.5	–	–	144	775	383	120 (≈ 56 µg/mL)
CC(C)[C@H](CO)Nc1nc(N[C@H]2CCN(S(C)(=O)=O)C2)c2ncn(C3CC3)c2n1 [Example 29, (R)-2-((9-cyclopropyl-6-(((S)-1-(methylsulfonyl)pyrrolidin-3-yl)amino)-9H-purin-2-yl)amino)-3-methylbutan-1-ol]	> 30000	2420	1380	–	90	3700	> 29700	–	90.5	71.2 (≈ 30.2 µg/mL)	2190	–	–	–	–
CCn1cnc2c(N[C@H]3CCN(S(=O)(=O)CC(F)(F)F)C3)nc(N[C@@H](CO)C(C)C)nc21 [Example 40, (R)-2-((9-ethyl-6-(((S)-1-(2,2,2-trifluoroethylsulfonyl)pyrrolidin-3-yl)amino)-9H-purin-2-yl)amino)-3-methylbutan-1-ol]	> 30000	2710	6720	–	24	587	4300	–	>300	1.79 (≈ 0.858 µg/mL)	253	–	–	–	–
CC[C@@H](CO)Nc1nc(N[C@H]2CCN(S(=O)(=O)NC)C2)c2ncn(CC)c2n1 [Example 48, (S)-3-((9-ethyl-2-(((S)-1-hydroxybutan-2-yl)amino)-9H-purin-6-yl)-amino)-N-methylpyrrolidine-1-sulfonamide]	> 30000	3330	2350	–	123	5550	> 23800	–	13.3	> 1000	1300	–	–	–	–
CC(C)[C@H](CO)Nc1nc(N[C@H]2C[C@@H](C)N(S(C)(=O)=O)C2)c2ncn(C(C)C)c2n1 [Example 34, (R)-2-((9-isopropyl-6-(((3S,5R)-5-methyl-1-(methylsulfonyl)-pyrrolidin-3-yl)amino)-9H-purin-2-yl)amino)-3-methylbutan-1-ol]	> 30000	1150	487	–	12	844	11800	381	>300	59.9 (≈ 26.3 µg/mL)	–	–	–	–	–
CC[C@H](Nc1nc(N[C@H]2CCN(S(N)(=O)=O)C2)c2ncn(CC)c2n1)C(C)=O [Example 10, (S)-3-((9-ethyl-2-(((S)-2-oxopentan-3-yl)amino)-9H-purin-6-yl)amino)pyrrolidine-1-sulfonamide]	> 30000	2940	1300	–	100	4620	> 23100	–	17.6	> 904	481	–	–	–	–
CC(C)n1cnc2c(N[C@H]3CCN(S(C)(=O)=O)C3)nc(NC(CO)C3CCCC3)nc21 (stereo partly drawn) [Example 15, 2-cyclopentyl-2-((9-isopropyl-6-(((S)-1-(methylsulfonyl)pyrrolidin-3-yl)amino)-9H-purin-2-yl)amino)ethan-1-ol]	> 30000	918	568	–	22	1220	2600	–	>300	132 (≈ 59.6 µg/mL)	231	–	–	–	–
